Measurements taken from US8999962B2, “Method for increasing bone density and/or reducing any osteochondral defects in an animal and a composition including vitamin K” (priority 2008, dated 2015).

What was measured:
[1] = Degradation of K1 by sunlight; assay type: physicochemical; conditions: after 4 hours exposure to bright sunlight
Procedure: Degradation of K1 begins rapidly as soon as photosynthesis ceases and the rate of degradation is directly related to the intensity of UVB. Pure K1 in solution is denatured in 20 minutes in direct sunlight. […] Aside from the degradation of K1, a further problem herbivores have is that the concentration of other fat soluble nutrients such as lutein in green vegetation may be up to 100 times higher than the concentration of vitamin K1. Lutein competes with the absorption and metabolism of vitamin K1 (see Mitchell G. V, Cook K. K., Jenkins M. Y, Grundel E International Journal of Vitamin and Nutrition Research 2001, 71: 30) as well as high levels of Vitamin E (see Tovar A, Ameho C. K. Blumberg J. B., Peterson J. W, Smith D, Booth S. Nutrition And Metabolism 2006, 3:29) and therefore with the combination of UV, the plant matrix and competition with other fat soluble vitamins, the actual amount of vitamin K1 available is much less than quoted or expected. It follows that the vitamin K requirement for animals and humans has been grossly underestimated resulting in vitamin K deficiency.
It is known that Vitamin K1 (K1) is rapidly degraded by sunlight (UV). For vitamin K1 to be a stable component of a vitamin product, it is necessary to protect it using physical and/or chemical means. It was shown that a loss of approximately 20% of K1 occurred after 4 hours exposure to bright sunlight.

[2] = of the apparent concentration in the leaf, cited from earlier work
[3] = pure K1 in solution, direct sunlight; cited from earlier work

CC1=C(C/C=C(\C)CCC[C@H](C)CCC[C@H](C)CCCC(C)C)C(=O)c2ccccc2C1=O [Example K1, Phylloquinone]
loss of K1 [1]: approximately 20% | natural bioavailability when consumed with fat ([2]; consumed with fat): 15-16% | natural bioavailability [2]: 8-10% | time in which pure K1 is denatured [3]: 20 min
